Laboratory results reported in US9040518B2, “Chemical compounds” (GlaxoSmithKline LLC, priority 2010, dated 2015).
pIC50: −log10 of the molar value. Counter-ions that a name gives are not always drawn.

molecular target: ileal bile acid cotransporter (iBAT) (Homo sapiens (Human), UniProt Q12908); assay: Human iBAT inhibition: [3H]-taurocholate uptake into HEK293 cells expressing human iBAT; format: cell-based; conditions: HEK293 cells transduced with human iBAT Bacmam virus, 90 minutes at ambient temperature, mean of at least 2 datapoints
Sequence (Q12908 whole entry): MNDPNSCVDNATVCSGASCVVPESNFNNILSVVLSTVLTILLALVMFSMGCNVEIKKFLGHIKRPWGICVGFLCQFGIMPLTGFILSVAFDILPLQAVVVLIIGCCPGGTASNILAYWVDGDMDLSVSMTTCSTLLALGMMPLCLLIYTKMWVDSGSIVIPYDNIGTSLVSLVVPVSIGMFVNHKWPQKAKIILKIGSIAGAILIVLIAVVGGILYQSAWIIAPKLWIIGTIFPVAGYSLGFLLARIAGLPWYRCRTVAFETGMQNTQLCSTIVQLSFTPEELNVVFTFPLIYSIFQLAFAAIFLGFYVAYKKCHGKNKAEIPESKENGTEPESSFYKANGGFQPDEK

SMILES | pIC50
CCCC[C@]1(CC)CS(=O)(=O)c2cc(CCC(=O)NC(CC(=O)O)CC(=O)O)c(OC)cc2[C@@H](c2ccccc2)N1 [Example 17, 3-({3-[(3R,5R)-3-butyl-3-ethyl-7-(methyloxy)-1,1-dioxido-5-phenyl-2,3,4,5-tetrahydro-1,4-benzothiazepin-8-yl]propanoyl}amino)pentanedioic acid trifluoroacetate salt] | 5.48
CCCC[C@]1(CC)CS(=O)(=O)c2cc(CNCC(=O)O)c(N(C)C)cc2[C@@H](c2ccccc2)N1 [Example 68, N-{[(3R,5R)-3-butyl-7-(dimethylamino)-3-ethyl-1,1-dioxido-5-phenyl-2,3,4,5-tetrahydro-1,4-benzothiazepin-8-yl]methyl}glycine trifluoroacetate salt] | 9.00
CCCC[C@]1(CC)CS(=O)(=O)c2cc(CP(=O)(O)O)c(OC)cc2[C@@H](c2ccccc2)N1O [Example 54, {[(3R,5R)-3-butyl-3-ethyl-4-hydroxy-7-(methyloxy)-1,1-dioxido-5-phenyl-2,3,4,5-tetrahydro-1,4-benzothiazepin-8-yl]methyl}phosphonic acid] | 6.91
CCCC[C@]1(CC)CS(=O)(=O)c2cc(CNCCS(=O)(=O)O)c(OC)cc2[C@@H](c2ccccc2)N1 [Example 35, 2-({[(3R,5R)-3-butyl-3-ethyl-7-(methyloxy)-1,1-dioxido-5-phenyl-2,3,4,5-tetrahydro-1,4-benzothiazepin-8-yl]methyl}amino)ethanesulfonic acid ammonium salt] | 7.27
CCCC[C@]1(CC)CS(=O)(=O)c2cc(CN(C)CC(=O)O)c(OC)cc2[C@@H](c2ccccc2)N1 [Example 49, N-{[(3R,5R)-3-butyl-3-ethyl-7-(methyloxy)-1,1-dioxido-5-phenyl-2,3,4,5-tetrahydro-1,4-benzothiazepin-8-yl]methyl}-N-methylglycine ammonium salt] | 7.39
CCCC[C@]1(CC)CS(=O)(=O)c2cc(CN[C@H](C(=O)O)[C@@H](C)O)c(OC)cc2[C@@H](c2ccccc2)N1 [Example 56, N-{[(3R,5R)-3-butyl-3-ethyl-7-(methyloxy)-1,1-dioxido-5-phenyl-2,3,4,5-tetrahydro-1,4-benzothiazepin-8-yl]methyl}-L-threonine ammonium salt] | 6.37
CCCC[C@]1(CC)CS(=O)(=O)c2cc(CNC(CC(=O)O)CC(=O)O)c(OC)cc2[C@@H](c2ccccc2)N1 [Example 26, 3-({[(3R,5R)-3-butyl-3-ethyl-7-(methyloxy)-1,1-dioxido-5-phenyl-2,3,4,5-tetrahydro-1,4-benzothiazepin-8-yl]methyl}amino)pentanedioic acid] | 7.37
CCCC[C@]1(CC)CS(=O)(=O)c2cc(CN(C)CCC(=O)O)c(OC)cc2[C@@H](c2ccccc2)N1 [Example 29, N-{[(3R,5R)-3-butyl-3-ethyl-7-(methyloxy)-1,1-dioxido-5-phenyl-2,3,4,5-tetrahydro-1,4-benzothiazepin-8-yl]methyl}-N-methyl-β-alanine trifluoroacetate salt] | 6.44
CCCC[C@]1(CC)CS(=O)(=O)c2cc(CNC(C)(C)C(=O)O)c(OC)cc2[C@@H](c2ccccc2)N1 [Example 32, N-{[(3R,5R)-3-butyl-3-ethyl-7-(methyloxy)-1,1-dioxido-5-phenyl-2,3,4,5-tetrahydro-1,4-benzothiazepin-8-yl]methyl}-2-methylalanine trifluoroacetate salt] | 6.72
CCCC[C@]1(CC)CS(=O)(=O)c2cc(/C=C/C(=O)O)c(OC)cc2[C@@H](c2ccccc2)N1 [Example 9, (2E)-3-[(3R,5R)-3-butyl-3-ethyl-7-(methyloxy)-1,1-dioxido-5-phenyl-2,3,4,5-tetrahydro-1,4-benzothiazepin-8-yl]-2-propenoic acid ammonium salt] | 8.52
CCCC[C@]1(CC)CS(=O)(=O)c2cc(CNCCP(=O)(O)O)c(OC)cc2[C@@H](c2ccccc2)N1 [Example 33, [2-({[(3R,5R)-3-butyl-3-ethyl-7-(methyloxy)-1,1-dioxido-5-phenyl-2,3,4,5-tetrahydro-1,4-benzothiazepin-8-yl]methyl}amino)ethyl]phosphonic acid trifluoroacetate salt] | 5.57
CCCC[C@]1(CC)CS(=O)(=O)c2cc(CN3CCC[C@@H]3C(=O)O)c(OC)cc2[C@@H](c2ccccc2)N1 [Example 57, 1-{[(3R,5R)-3-butyl-3-ethyl-7-(methyloxy)-1,1-dioxido-5-phenyl-2,3,4,5-tetrahydro-1,4-benzothiazepin-8-yl]methyl}-D-proline ammonium salt] | 6.12
CCCC[C@]1(CC)CS(=O)(=O)c2cc(CCC(=O)NS(C)(=O)=O)c(OC)cc2[C@@H](c2ccccc2)N1 [Example 11, 3-[(3R,5R)-3-butyl-3-ethyl-7-(methyloxy)-1,1-dioxido-5-phenyl-2,3,4,5-tetrahydro-1,4-benzothiazepin-8-yl]-N-(methylsulfonyl)propanamide] | 7.70
CCCC[C@]1(CC)CS(=O)(=O)c2cc(CCC(=O)NC(C)(C)C(=O)O)c(OC)cc2[C@@H](c2ccccc2)N1 [Example 16, N-{3-[(3R,5R)-3-butyl-3-ethyl-7-(methyloxy)-1,1-dioxido-5-phenyl-2,3,4,5-tetrahydro-1,4-benzothiazepin-8-yl]propanoyl}-2-methylalanine] | 6.14
